Measurements taken from the supplement of paper PMC10307832.

Legend:
Assay in all cases: relative viability (nuclei count vs DMSO), 5 days (fraction); higher = more cells survive
Everolimus + Linsitinib = compound: CO[C@H]1C[C@@H]2CC[C@@H](C)[C@@](O)(O2)C(=O)C(=O)N2CCCC[C@H]2C(=O)O[C@H]([C@H](C)C[C@@H]2CC[C@@H](OCCO)[C@H](OC)C2)CC(=O)[C@H](C)/C=C(\C)[C@@H](O)[C@@H](OC)C(=O)[C@H](C)C[C@H](C)/C=C/C=C/C=C/1C [Everolimus] + C[C@]1(O)C[C@@H](c2nc(-c3ccc4ccc(-c5ccccc5)nc4c3)c3c(N)nccn32)C1 [Linsitinib] (partner 1 µM)
Method in brief: (§1)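 Each reported value is a median over duplicate plates. It expresses relative viability: treated-well nuclei count divided by vehicle-well nuclei count. Lung cancer cell lines in 1536-well plates were dosed by pin tool a day after seeding, alone with one drug or with a fixed anchor-drug dose plus five library-drug doses (not always all listed) in √10 steps, and nuclei were counted after 5 days.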

Everolimus + Trametinib = compound: CO[C@H]1C[C@@H]2CC[C@@H](C)[C@@](O)(O2)C(=O)C(=O)N2CCCC[C@H]2C(=O)O[C@H]([C@H](C)C[C@@H]2CC[C@@H](OCCO)[C@H](OC)C2)CC(=O)[C@H](C)/C=C(\C)[C@@H](O)[C@@H](OC)C(=O)[C@H](C)C[C@H](C)/C=C/C=C/C=C/1C [Everolimus] + CC(=O)Nc1cccc(-n2c(=O)n(C3CC3)c(=O)c3c(Nc4ccc(I)cc4F)n(C)c(=O)c(C)c32)c1 [Trametinib] (partner 0.02 µM)
Method in brief: as §1

Everolimus + OSI-027 = compound: CO[C@H]1C[C@@H]2CC[C@@H](C)[C@@](O)(O2)C(=O)C(=O)N2CCCC[C@H]2C(=O)O[C@H]([C@H](C)C[C@@H]2CC[C@@H](OCCO)[C@H](OC)C2)CC(=O)[C@H](C)/C=C(\C)[C@@H](O)[C@@H](OC)C(=O)[C@H](C)C[C@H](C)/C=C/C=C/C=C/1C [Everolimus] + COc1cccc2cc(-c3nc([C@H]4CC[C@H](C(=O)O)CC4)n4ncnc(N)c34)[nH]c12 [OSI-027] (partner 0.5 µM)
Method in brief: as §1

Everolimus + Lapatinib = compound: CO[C@H]1C[C@@H]2CC[C@@H](C)[C@@](O)(O2)C(=O)C(=O)N2CCCC[C@H]2C(=O)O[C@H]([C@H](C)C[C@@H]2CC[C@@H](OCCO)[C@H](OC)C2)CC(=O)[C@H](C)/C=C(\C)[C@@H](O)[C@@H](OC)C(=O)[C@H](C)C[C@H](C)/C=C/C=C/C=C/1C [Everolimus] + CS(=O)(=O)CCNCc1ccc(-c2ccc3ncnc(Nc4ccc(OCc5cccc(F)c5)c(Cl)c4)c3c2)o1 [Lapatinib] (partner 2 µM)
Method in brief: as §1

Cell Line | relative viability (Everolimus + Linsitinib; first compound 0.01 µM) | relative viability (Everolimus + Linsitinib; first compound 0.1 µM) | relative viability (Everolimus + Linsitinib; first compound 0.3162 µM) | relative viability (Everolimus + Linsitinib; first compound 1 µM) | relative viability (Everolimus + Trametinib; first compound 0.01 µM) | relative viability (Everolimus + Trametinib; first compound 0.03162 µM) | relative viability (Everolimus + Trametinib; first compound 0.1 µM) | relative viability (Everolimus + Trametinib; first compound 0.3162 µM) | relative viability (Everolimus + Trametinib; first compound 1 µM) | relative viability (Everolimus + OSI-027; first compound 0.01 µM) | relative viability (Everolimus + OSI-027; first compound 0.1 µM) | relative viability (Everolimus + OSI-027; first compound 0.3162 µM) | relative viability (Everolimus + OSI-027; first compound 1 µM) | relative viability (Everolimus + Lapatinib; first compound 0.01 µM) | relative viability (Everolimus + Lapatinib; first compound 0.1 µM) | relative viability (Everolimus + Lapatinib; first compound 0.3162 µM) | relative viability (Everolimus + Lapatinib; first compound 1 µM) | relative viability (Everolimus + Linsitinib; first compound 0.03162 µM) | relative viability (Everolimus + OSI-027; first compound 0.03162 µM) | relative viability (Everolimus + Lapatinib; first compound 0.03162 µM)
NCI-H650 | 0.53 | 0.506 | 0.512 | 0.557 | 1 | 0.687 | 0.664 | 0.593 | 0.497 | 0.372 | 0.446 | 0.392 | 0.363 | 0.652 | 0.716 | 0.598 | 0.479 |  |  | 
NCI-H661 | 0.473 | 0.361 | 0.319 | 0.306 | 0.407 | 0.376 | 0.343 | 0.409 | 0.318 | 0.471 | 0.433 | 0.4 | 0.511 | 0.358 | 0.341 | 0.276 | 0.299 | 0.575 | 0.44 | 0.428
NCI-H727 | 0.207 | 0.203 | 0.291 | 0.362 | 0.433 | 0.385 | 0.337 | 0.363 | 0.342 | 0.425 | 0.467 | 0.345 | 0.444 | 0.435 | 0.402 | 0.527 | 0.561 | 0.2 | 0.392 | 0.543
NCI-H838 | 0.329 | 0.303 | 0.326 | 0.318 | 0.288 | 0.267 | 0.278 | 0.263 | 0.28 | 0.262 | 0.233 | 0.259 | 0.334 | 0.517 | 0.48 | 0.439 | 0.625 | 0.372 | 0.252 | 0.535
NCI-H1355 | 0.412 | 0.348 | 0.349 | 0.336 | 0.244 | 0.24 | 0.215 | 0.263 | 0.244 | 0.281 | 0.231 | 0.299 | 0.241 | 0.471 | 0.363 | 0.53 | 0.436 | 0.322 | 0.258 | 0.44
NCI-H1395 | 1 | 0.766 | 0.731 | 0.787 | 0.724 | 0.641 | 0.657 | 0.694 | 0.652 | 0.596 | 0.544 | 0.482 | 0.54 | 0.886 | 0.585 | 0.614 | 0.869 | 0.864 | 0.555 | 0.755
NCI-H1437 | 0.589 | 0.493 | 0.36 | 0.279 | 0.383 | 0.348 | 0.374 | 0.313 | 0.249 | 0.379 | 0.344 | 0.365 | 0.487 | 0.642 | 0.464 | 0.508 | 0.417 | 0.598 | 0.363 | 0.55
NCI-H1651 | 0.586 | 0.495 | 0.495 | 0.454 | 0.774 | 0.657 | 0.605 | 0.592 | 0.538 | 0.411 | 0.384 | 0.41 | 0.58 | 0.537 | 0.497 | 0.533 | 0.521 | 0.538 | 0.439 | 0.391
